The subject of experiment [1] is L929. As to the kind of experiment: TNF-gamma activity on L929 cells (MTS cytotoxicity/proliferation, morphology). The format is cell-based, mouse. Details: key to Proliferation / Differentiation / Adhesion: The numbers of “+” indicate the relative level of activities.; ++: The numbers of “+” indicate the relative level of activities.; +++: The numbers of “+” indicate the relative level of activities.; “−” indicates no detected activity at the concentration range tested. As to the method: (§1) The adherent target cells were prepared from confluent cultures by trypsinization in PBS, and non-adherent target cells were harvested from stationary cultures and washed once with medium. Target cells were suspended at 3×10^5 cells/ml in medium containing 10% FCS. 0.1 ml aliquots were dispensed into 96-well flat-bottomed microtiter plates containing 0.1 ml serially diluted test samples of cells (WEHI 164 and L929). Incubation was continued for 70 hours. TNF-alpha, TNF-beta and bacterially-produced TNF-gamma were added at a 0.5 μg/ml concentration. The cytotoxicity and proliferation activity was quantified using an MTS assay performed by the addition of 20 μl of MTS and phenazine methosulfate (PMS) solution to each well. After a three hour incubation, the OD at 492 nm was measured by an ELISA plate reader. The OD492 is proportional to the number of viable cells in the wells. The percent of cytotoxicity was calculated as follows: […]. The photographs were taken after 72 hours.
(§2) In the graph of FIG. 7B, the assay was performed as described above, however, increasing amounts of TNF-alpha, TNF-beta and TNF-gamma were added to the cultures.

In experiment [2] the test system is WEHI 164. Kind of experiment: TNF-gamma activity on WEHI 164 cells (MTS cytotoxicity/proliferation, morphology). In kind it is cell-based, mouse. On the set-up: key to Proliferation / Differentiation / Adhesion: The numbers of “+” indicate the relative level of activities.; ++: The numbers of “+” indicate the relative level of activities.; +++: The numbers of “+” indicate the relative level of activities.; “−” indicates no detected activity at the concentration range tested. As to the method:
as §1, §2

The test system of experiment [3] is A-431. Kind of experiment: TNF-gamma activity on A-431 cells. Details: key: The numbers of “+” indicate the relative level of activities.; ++: The numbers of “+” indicate the relative level of activities.; +++: The numbers of “+” indicate the relative level of activities.; “−” indicates no detected activity at the concentration range tested. The settings on record: A-431, human epidermoid carcinoma. The format is cell-based.

The test system of experiment [4] is 293. Kind of experiment: TNF-gamma activity on 293 cells. On the set-up: key: The numbers of “+” indicate the relative level of activities.; ++: The numbers of “+” indicate the relative level of activities.; +++: The numbers of “+” indicate the relative level of activities.; “−” indicates no detected activity at the concentration range tested. In kind it is cell-based. Conditions: 293, human embryonal kidney.

The test system of experiment [5] is WEHI 164 cells. As to the kind of experiment: Measurement of apoptosis (nucleosome ELISA). The format is cell-based, mouse. Conditions: increasing amounts (FIG. 12). How it is done: In a first incubation step, anti-histone antibody was fixed adsorptively on the wall of a microtiter plate module. Subsequently, non-specific binding sites on the wall were saturated by treatment with incubation buffer (e.g., blocking solution). During the second incubation step, the nucleosomes contained in the WEHI 164 cell sample treated with the TNF-alpha, TNF-beta or bacterially-produced TNF-gamma were bound via their histone components to the immobilized anti-histone antibody. In the third incubation step, anti-DNA-peroxidase (POD) reacted with the DNA component of the nucleosomes. After removal of all unbound peroxidase conjugate by a washing step, the amount of peroxidase retained in the immunocomplex was determined spectrophotometrically using the substrate ABTS (2,2′-azino-di-[3-ethylbenzthiazoline sulfonate]). Anti-histone antibody reacted with the histones H1, H2A, H2B, H3, and H4 from the sample. Anti-DNA POD antibody bound to single- and double-stranded DNA. Therefore, the ELISA allowed the detection of mono- and oligonucleosomes and may be applied to measure apoptotic cell death. The level of cell death was measured by the amount of cytoplasmic histone-associated DNA fragments which was indicated by the ratio of the absorbances observed at 405 and 490 nm (A405/A490). […]

Experiment [6] relates to bFGF-induced corneal neovascularization. As to the kind of experiment: Corneal angiogenic assay. The format is in vivo, rat. The text has this: Basic FGF (“bFGF”) has been tested in this corneal angiogenic assay in various research laboratories for a variety of purposes. It has been shown that bFGF can induce significant angiogenesis in corneas (e.g., in rabbits, rats and mice). Based on the previous studies, bFGF was used in our study of TNF-gamma as an angiogenic factor to induce the growth of blood vessels in rat corneas.
An incision, 1-1.5 mm in length, is made in the center of the cornea with a microsurgery scalpel blade.
Starting at the incision, a micropocket is created between the collagenous layers of the corneal stroma with a Castroviego cyclodialysis spatula. This pocket extends to a point 1-2 mm from the capillary bed at the corneal-scleral limbus.
bFGF, which is incorporated 1:1 into non-inflammatory Hydron polymer (available from Interferon Sciences, New Brunswick, N.J.), is implanted into the pocket.
Five or seven days after corneal implantation, corneal blood perfusion with colloidal carbon is performed. Corneas are then harvested, fixed, flattened, mounted and photographed for morphology.
An image analysis system (IPLab) is used to quantify the corneal angiogenesis. The corneal surface area, which is covered by the new blood vessels, is quantified and used in our current study. After corneal implantation surgery, TNF-gamma, angiostatin or PBS in a volume of 25 microliters was injected into the conjunctival region adjacent to the implantation site. Based on molarities of TNF-gamma and angiostatin, 10 micrograms of TNF-gamma or 5 micrograms of angiostatin were given respectively four times, once a day, during the first four days post-surgery. TNF-gamma and angiostatin were prepared in PBS.
bFGF was used to induce neovascularization of the cornea from preexisting pericorneal limbal vessels in two different versions of the assay. First, corneas were surgically implanted with hydrogel plugs containing bFGF. […] In a separate study using an alternate version of this assay, both bFGF and treatment protein were co-administered on a nitrocellulose filter disk implanted within the rat corneal stroma. […] In both assays, the surface area of the angiogenic response was quantitated from digital images of treated corneas five days following implantation.

For “TNF-gamma: new member of the tumor necrosis factor family; the term refers to TNF-gamma-alpha and/or TNF-gamma-beta”, the “morphology change (killed cells)” value was “induced a morphology change which appeared as dark round cells (indicating killed cells)” in experiment [1] (L929, 0.5 μg/ml, photographs after 72 hours (FIG. 8)) and “induced a morphology change which appeared as dark round cells (indicating killed cells)” in experiment [2] (WEHI 164, 0.5 μg/ml, photographs after 72 hours (FIG. 7A)). Also, the Adhesion result in experiment [1] (L929, mouse fibroblast) is “−−”; in experiment [2] (WEHI 164, mouse fibrosarcoma) it was “−−”; in experiment [3], “−−”; in experiment [4], “−−”. The Differentiation result was “−−” in experiment [1] (L929, mouse fibroblast); “−−” in experiment [2] (WEHI 164, mouse fibrosarcoma); “−−” in experiment [3]; “−−” in experiment [4]. Further, the Proliferation entry is listed as “−” in experiment [1] (L929, mouse fibroblast); “−” in experiment [2] (WEHI 164, mouse fibrosarcoma); “−” in experiment [3]; “++” in experiment [4]. In addition, the “inhibition of L929 cell growth” value in experiment [1] (MTS assay, increasing amounts added) is on record as “but not of the fibroblast cell line L929”. Further, the “inhibition of WEHI 164 cell growth” value in experiment [2] (MTS assay, increasing amounts added (FIG. 7B)) is recorded as “dose-dependent inhibitor of the growth”. Also, in experiment [5], the “apoptosis (cytoplasmic histone-associated DNA fragments, A405/A490)” value is “increasingly high levels of apoptosis”. For the same substance, in experiment [6] (bFGF (300 ng) implant, conjunctival injection once a day for four days, 10 micrograms TNF-gamma or 5 micrograms angiostatin, seven days after surgery, vs PBS), the “angiogenic process in bFGF-implanted corneas” value is “significantly slowed down the angiogenic process”. Further, the “vessel growth in PBS-implanted corneas” value in experiment [6] (multiple conjunctival injections) is recorded as “no obvious vessel growth”.
